Columns and labels:
Type in all cases: in vivo
[1] = target: NAd (Nor adrénaline) uptake (Rattus norvegicus, UniProt Q63380); assay: Uptake "ex vivo" of NAd; settings: dose not given
Excerpt: (§1) Activité sur les tests d'inhibition ou de recapture des principaux médiateurs adrénergiques.

[2] = target: 5-HT (Sérotonine) uptake (Rattus norvegicus, UniProt P31652); assay: Uptake "ex vivo" of 5-HT; settings: dose not given, N.S. = not significant
Excerpt: as §1
(§2) Les résultats obtenus en comparaison avec ceux des antidépresseurs classiques sont rassemblés dans le tableau II: […]

[3] = target: DA (Dopamine) uptake (Rattus norvegicus, UniProt P23977); assay: Uptake "ex vivo" of DA; settings: dose not given
Excerpt: as §1, §2

CN(C)CC(Oc1ccccc1)Oc1ccccc1 [MEDIFOXAMINE]
inactif: UPTAKE "EX VIVO" % d'inhibition NAd [1] | UPTAKE "EX VIVO" % d'inhibition 5-HT [2] | UPTAKE "EX VIVO" % d'inhibition DA [3]
